Measured values: US20150328377A1, “COMPOSITION OF D-ALPHA HYDROXY ACIDS AND ANTIMICROBIALS” (BACTERIN INTERNATIONAL, INC., priority 2012, published 2015)
Values joined by “and” are separate entries in the source; they are usually repeats but may differ in a detail not shown here. Identical values can stand only once.

Test system: S. aureus
Test: microplate biofilm formation assay (crystal violet)
Type: cell-based
Parameters: key to Relative Biofilm Score: crystal violet conc. / non-treated control conc. (1 = control)
Protocol: The synergy between a D-alpha hydroxy acid and an antimicrobial agent was determined through a standard microplate biofilm formation assay (Antimicrob Agents Chemother. 2009, 53, 4159-4166—which is incorporated in its entirety by reference). […] Before incubation each well received about 0, about 2, about 20, or about 200 μg/mL L- or D-lactic acids and about 0.0 or about 0.5 μg/mL chlorhexidine (CHX). The plates were incubated for approximately 20 hours at about 37° C. and then the supernatant of the wells was removed. Each well was gently washed 3 times with phosphate buffered saline, and the biofilm was fixed by incubating the plates at about 60° C. for about 1 hour. The biofilm was then stained by incubating at about 37° C. in about 100 μL about 0.5% crystal violet for about 20 minutes. The plates were then thoroughly rinsed with tap water to remove any excess crystal violet and dried. The residual crystal violet was then extracted with about 200 μL of about 33% acetic acid. About 150 μL of the about 33% acetic acid extractant was then diluted with about 2000 μL acetonitrile and the quantity of crystal violet was determined by measuring the absorbance of the resulting solution at about 590 nanometers. The concentration of crystal violet is directly proportional to the amount of biofilm formation in each well. Each set of concentrations was measured at least four times. The average crystal violet concentration was divided by the average crystal violet concentration for a non-treated control (about 0.0 μg/mL CHX and about 0.0 μg/mL lactic acid) to obtain a relative biofilm formation score. In the same manner as Example 1, the synergy between a D-alpha hydroxy acid and the combination of rifampin and minocycline was determined. […] Before incubation each well received about 0 μg/mL or about 200 μg/mL of L- or D-lactic acid and about 0 ng/mL or about 5 ng/mL each of rifampin and minocycline. The plates were incubated for about 20 hours at about 37° C. and then the supernatant of the wells was removed. The quantity of biofilm formation in each well was determined using the protocol detailed in Example 1.

[1] = 2 μg/mL lactic acid combined with 0.5 μg/mL CHX
[2] = 2 μg/mL lactic acid, 0.0 μg/mL CHX
[3] = 20 μg/mL lactic acid combined with 0.5 μg/mL CHX
[4] = 20 μg/mL lactic acid, 0.0 μg/mL CHX
[5] = 200 μg/mL lactic acid combined with 5.0 ng/mL Rif/Min, Table 2
[6] = 200 μg/mL lactic acid combined with 0.5 μg/mL CHX
[7] = 200 μg/mL lactic acid, 0.0 μg/mL CHX
[8] = 200 μg/mL lactic acid, 0.0 ng/mL Rif/Min, Table 2

SMILES | Relative Biofilm Score (0.5 μg/mL CHX alone (0 μg/mL lactic acid), relative to non-treated control, values approximate) | Relative Biofilm Score [1] | Relative Biofilm Score [2] | Relative Biofilm Score [3] | Relative Biofilm Score [4] | Relative Biofilm Score [5] | Relative Biofilm Score [6] | Relative Biofilm Score [7] | Relative Biofilm Score [8] | effect on biofilm formation (combined with chlorhexidine, not by itself) | effect on biofilm formation (combined with rifampin and minocycline, not by itself) | effect on biofilm formation (alone or in combination with chlorhexidine at any concentration) | effect on biofilm formation (by itself or combined with rifampin and minocycline)
[H]/N=C(\N/C(=N/[H])NCCCCCCNC(=N)NC(=N)Nc1ccc(Cl)cc1)Nc1ccc(Cl)cc1 [CHX, chlorhexidine] | 0.26 ± 0.04 and 0.26 ± 0.05 |  |  |  |  |  |  |  |  |  |  |  | 
C[C@@H](O)C(=O)O [D-Lactic Acid, D-lactic acid] |  | 0.19 ± 0.03 | 1.07 ± 0.24 | 0.12 ± 0.03 | 1.11 ± 0.17 | 0.27 ± 0.04 | 0.04 ± 0.01 | 1.10 ± 0.20 | 0.92 ± 0.24 | statistically significant dose dependent decrease in biofilm formation | statistically significant decrease in biofilm formation |  | 
C[C@H](O)C(=O)O [L-Lactic Acid, L-lactic acid] |  | 0.23 ± 0.05 | 1.01 ± 0.20 | 0.33 ± 0.08 | 1.06 ± 0.18 | 0.43 ± 0.03 | 0.27 ± 0.07 | 1.16 ± 0.18 | 1.04 ± 0.15 |  |  | did not show any statistically significant effects on biofilm formation | did not show any reduction in biofilm formation
